From PubChem BioAssay AID1259407 (Chemical Carcinogenesis Research Information System (CCRIS), 2018)
The source made the active and inactive calls. How the calls were made is not given here.

System: CCRIS mutagenicity, Ames/micronucleus/aberration tests
Assay: CCRIS mutagenicity studies
[1] = Test System: AMES SALMONELLA TYPHIMURIUM, Strain/Indicator: TA98, Metabolic Activation: NONE, Method: PREINCUBATION
[2] = Test System: AMES SALMONELLA TYPHIMURIUM, Strain/Indicator: TA98, Metabolic Activation: NONE, Method: STANDARD PLATE
[3] = Test System: AMES SALMONELLA TYPHIMURIUM, Strain/Indicator: TA100, Metabolic Activation: NONE, Method: PREINCUBATION
[4] = Test System: AMES SALMONELLA TYPHIMURIUM, Strain/Indicator: TA100, Metabolic Activation: NONE, Method: STANDARD PLATE
[5] = Test System: AMES SALMONELLA TYPHIMURIUM, Strain/Indicator: TA100, Metabolic Activation: RAT, LIVER, S-9, AROCLOR 1254, Method: STANDARD PLATE
[6] = Test System: AMES SALMONELLA TYPHIMURIUM, Strain/Indicator: TA1535, Metabolic Activation: NONE, Method: PREINCUBATION
[7] = Test System: AMES SALMONELLA TYPHIMURIUM, Strain/Indicator: TA1535, Metabolic Activation: NONE, Method: STANDARD PLATE
[8] = Test System: AMES SALMONELLA TYPHIMURIUM, Strain/Indicator: TA1537, Metabolic Activation: NONE, Method: PREINCUBATION

Measured: mutagenic call

O=c1[nH]c(=O)[nH]c(=O)[nH]1
inactive: Test System: AMES SALMONELLA TYPHIMURIUM, Strain/Indicator: TA98, Metabolic Activation: HAMSTER, LIVER, S-9, AROCLOR 1254, Method: PREINCUBATION inactive; negative | [1] inactive; negative | [2] inactive; negative | Test System: AMES SALMONELLA TYPHIMURIUM, Strain/Indicator: TA98, Metabolic Activation: RAT, LIVER, S-9, AROCLOR 1254, Method: PREINCUBATION inactive; negative | Test System: AMES SALMONELLA TYPHIMURIUM, Strain/Indicator: TA98, Metabolic Activation: RAT, LIVER, S-9, AROCLOR 1254, Method: STANDARD PLATE inactive; negative | Test System: AMES SALMONELLA TYPHIMURIUM, Strain/Indicator: TA100, Metabolic Activation: HAMSTER, LIVER, S-9, AROCLOR 1254, Method: PREINCUBATION inactive; negative | [3] inactive; negative | [4] inactive; negative | Test System: AMES SALMONELLA TYPHIMURIUM, Strain/Indicator: TA100, Metabolic Activation: RAT, LIVER, S-9, AROCLOR 1254, Method: PREINCUBATION inactive; negative | [5] inactive; negative | Test System: AMES SALMONELLA TYPHIMURIUM, Strain/Indicator: TA1535, Metabolic Activation: HAMSTER, LIVER, S-9, AROCLOR 1254, Method: PREINCUBATION inactive; negative | [6] inactive; negative | [7] inactive; negative | Test System: AMES SALMONELLA TYPHIMURIUM, Strain/Indicator: TA1535, Metabolic Activation: RAT, LIVER, S-9, AROCLOR 1254, Method: PREINCUBATION inactive; negative | Test System: AMES SALMONELLA TYPHIMURIUM, Strain/Indicator: TA1535, Metabolic Activation: RAT, LIVER, S-9, AROCLOR 1254, Method: STANDARD PLATE inactive; negative | Test System: AMES SALMONELLA TYPHIMURIUM, Strain/Indicator: TA1537, Metabolic Activation: HAMSTER, LIVER, S-9, AROCLOR 1254, Method: PREINCUBATION inactive; negative | [8] inactive; negative | Test System: AMES SALMONELLA TYPHIMURIUM, Strain/Indicator: TA1537, Metabolic Activation: NONE, Method: STANDARD PLATE inactive; negative | Test System: AMES SALMONELLA TYPHIMURIUM, Strain/Indicator: TA1537, Metabolic Activation: RAT, LIVER, S-9, AROCLOR 1254, Method: PREINCUBATION inactive; negative | Test System: AMES SALMONELLA TYPHIMURIUM, Strain/Indicator: TA1537, Metabolic Activation: RAT, LIVER, S-9, AROCLOR 1254, Method: STANDARD PLATE inactive; negative | Test System: MOUSE LYMPHOMA, Strain/Indicator: L5178Y (TK+/TK-), Metabolic Activation: NONE, Method: SUSPENSION/PLATE inactive; negative | Test System: MOUSE LYMPHOMA, Strain/Indicator: L5178Y (TK+/TK-), Metabolic Activation: RAT, LIVER, S-9, AROCLOR 1254, Method: SUSPENSION/PLATE inactive; negative

COc1ccccc1NC(=O)C(N=Nc1ccc(-c2ccc(N=NC(C(C)=O)C(=O)Nc3ccccc3OC)c(Cl)c2)cc1Cl)C(C)=O (stereo unspecified)
inactive: Test System: AMES SALMONELLA TYPHIMURIUM, Strain/Indicator: TA98, Metabolic Activation: HAMSTER, LIVER, S-9, Method: PREINCUBATION (PRIVAL METHOD) inactive; negative

C[C@]12O[C@H]1[C@H]1CCCC[C@@H]1c1ccccc12
inactive: [2] inactive; negative | [4] inactive; negative

Cl/C=C(\Cl)C(Cl)Cl
active: [2] active; positive | [4] active; positive | [5] active; positive | [7] active; positive

Nc1ccc(Cc2ccc(N)c(Cc3ccc(N)cc3)c2)cc1
inactive: Test System: AMES SALMONELLA TYPHIMURIUM, Strain/Indicator: TA97, Metabolic Activation: NONE, Method: PREINCUBATION inactive; negative | [1] inactive; negative | [3] inactive; negative | Test System: AMES SALMONELLA TYPHIMURIUM, Strain/Indicator: TA1535, Metabolic Activation: HAMSTER, LIVER, S-9, AROCLOR 1254 (10%), Method: PREINCUBATION inactive; negative | [6] inactive; negative | Test System: AMES SALMONELLA TYPHIMURIUM, Strain/Indicator: TA1535, Metabolic Activation: RAT, LIVER, S-9, AROCLOR 1254 (10%), Method: PREINCUBATION inactive; negative
active: Test System: AMES SALMONELLA TYPHIMURIUM, Strain/Indicator: TA97, Metabolic Activation: HAMSTER, LIVER, S-9, AROCLOR 1254 (10%), Method: PREINCUBATION active; positive | Test System: AMES SALMONELLA TYPHIMURIUM, Strain/Indicator: TA97, Metabolic Activation: RAT, LIVER, S-9, AROCLOR 1254 (10%), Method: PREINCUBATION active; positive | Test System: AMES SALMONELLA TYPHIMURIUM, Strain/Indicator: TA98, Metabolic Activation: HAMSTER, LIVER, S-9, AROCLOR 1254 (10%), Method: PREINCUBATION active; positive | Test System: AMES SALMONELLA TYPHIMURIUM, Strain/Indicator: TA98, Metabolic Activation: RAT, LIVER, S-9, AROCLOR 1254 (10%), Method: PREINCUBATION active; positive | Test System: AMES SALMONELLA TYPHIMURIUM, Strain/Indicator: TA100, Metabolic Activation: HAMSTER, LIVER, S-9, AROCLOR 1254 (10%), Method: PREINCUBATION active; positive | Test System: AMES SALMONELLA TYPHIMURIUM, Strain/Indicator: TA100, Metabolic Activation: RAT, LIVER, S-9, AROCLOR 1254 (10%), Method: PREINCUBATION active; positive | Test System: AMES SALMONELLA TYPHIMURIUM, Strain/Indicator: TA1537, Metabolic Activation: HAMSTER, LIVER, S-9, AROCLOR 1254 (10%), Method: PREINCUBATION active; positive | Test System: AMES SALMONELLA TYPHIMURIUM, Strain/Indicator: TA1537, Metabolic Activation: RAT, LIVER, S-9, AROCLOR 1254 (10%), Method: PREINCUBATION active; positive

CC(Br)C(=O)O (stereo unspecified)
inactive: [1] inactive; negative | Test System: AMES SALMONELLA TYPHIMURIUM, Strain/Indicator: TA98, Metabolic Activation: RAT LIVER S-9, PHENOBARBITAL AND BETA-NAPHTHOFLAVONE, Method: PREINCUBATION inactive; negative | [3] inactive; negative | Test System: AMES SALMONELLA TYPHIMURIUM, Strain/Indicator: TA100, Metabolic Activation: RAT LIVER S-9, PHENOBARBITAL AND BETA-NAPHTHOFLAVONE, Method: PREINCUBATION inactive; negative | [6] inactive; negative | [8] inactive; negative | Test System: AMES SALMONELLA TYPHIMURIUM, Strain/Indicator: TA1537, Metabolic Activation: RAT LIVER S-9, PHENOBARBITAL AND BETA-NAPHTHOFLAVONE, Method: PREINCUBATION inactive; negative | Test System: AMES SALMONELLA TYPHIMURIUM, Strain/Indicator: TA1538, Metabolic Activation: NONE, Method: PREINCUBATION inactive; negative | Test System: AMES SALMONELLA TYPHIMURIUM, Strain/Indicator: TA1538, Metabolic Activation: RAT LIVER S-9, PHENOBARBITAL AND BETA-NAPHTHOFLAVONE, Method: PREINCUBATION inactive; negative | Test System: E.COLI, Strain/Indicator: WP2UVRA, Metabolic Activation: NONE, Method: PREINCUBATION inactive; negative | Test System: E.COLI, Strain/Indicator: WP2UVRA, Metabolic Activation: RAT LIVER S-9, PHENOBARBITAL AND BETA-NAPHTHOFLAVONE, Method: PREINCUBATION inactive; negative
active: End Point: IN VITRO CHROMOSOMAL ABERRATIONS, Test System: CHL CELLS, Metabolic Activation: RAT, LIVER, S-9, SODIUM PHENOBARBITAL AND 5,6-BENZOFLAVONE active; positive (structural changes) | Test System: AMES SALMONELLA TYPHIMURIUM, Strain/Indicator: TA1535, Metabolic Activation: RAT LIVER S-9, PHENOBARBITAL AND BETA-NAPHTHOFLAVONE, Method: PREINCUBATION active; positive
